Reference: US20100104511A1, “METHODS AND COMPOSITIONS USING CHELATOR-ANTIBODY CONJUGATES” (priority 2006, published 2010)

Assays:
Test in all cases: Apoptosis by Annexin-V-Fluos staining and flow cytometry
MDA-MB-231 cells = conditions: MDA-MB-231, 10 μM, 72 hours
Experimental: (§1) In vitro Analysis of Apoptosis. […] The cells were washed in PBS. Cell suspension was then stained with Annexin-V-Fluos (Roche Diagnostics, Mannheim, Germany) for 30 minutes before labeled cells were quantitated by flow cytometry (EpicsXL; Beckman Coulter, MarmiMiami, Fla., USA).

H3255 cells = conditions: H3255, 10 μM, 72 hours
Experimental: as §1

H441 cells = conditions: H441, 10 μM, 72 hours
Experimental: as §1

## COc1cc2ncnc(Nc3ccc(F)c(Cl)c3)c2cc1OCCCN1CCOCC1 [gefitinib]
MDA-MB-231 cells
  apoptosis percentage after deducting DMSO control: 6.92%
H3255 cells
  apoptosis percentage after deducting DMSO control: 25.86%
H441 cells
  apoptosis percentage after deducting DMSO control: 8.13%
